Laboratory results: the supplement of paper PMC10307832

How the values were obtained:
Assay in all cases: relative viability (nuclei count vs DMSO), 5 days (fraction); higher = more cells survive
Motesanib + AZD7762 = compound: CC1(C)CNc2cc(NC(=O)c3cccnc3NCc3ccncc3)ccc21 [Motesanib] + NC(=O)Nc1cc(-c2cccc(F)c2)sc1C(=O)N[C@H]1CCCNC1 [AZD7762] (partner 0.2 µM)
How it was run: (§1)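 Nuclei were stained with Hoechst during a one-step fixation (final 0.05% Triton X-100, 1% formaldehyde, 1 ug/ml Hoechst) carried out 5 days after dosing, then counted on 4× images. The cells, lung cancer lines in 1536-well plates, had been dosed by pin tool the day after seeding with one drug alone or a fixed anchor-drug dose plus five library-drug doses (not always all listed) in √10 steps. Relative viability is the nuclei count in treated wells divided by that in vehicle wells, and each value is the median of duplicate plates.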

Motesanib + Palbociclib = compound: CC1(C)CNc2cc(NC(=O)c3cccnc3NCc3ccncc3)ccc21 [Motesanib] + CC(=O)c1c(C)c2cnc(Nc3ccc(N4CCNCC4)cn3)nc2n(C2CCCC2)c1=O [Palbociclib] (partner 0.5 µM)
How it was run: as §1

[1] = compound: C[C@@]1(C(=O)Nc2ccc(F)nc2)CCCN1c1nc(Nc2cc(C3CC3)n[nH]2)c2cccn2n1 + Nc1ncn([C@H]2C[C@H](O)[C@@H](CO)O2)c(=O)n1 [Decitabine] (partner 2 µM)
How it was run: as §1

[2] = compound: C[C@@]1(C(=O)Nc2ccc(F)nc2)CCCN1c1nc(Nc2cc(C3CC3)n[nH]2)c2cccn2n1 + C[C@@H](Oc1cc(-c2cnn(C3CCNCC3)c2)cnc1N)c1c(Cl)ccc(F)c1Cl [Crizotinib] (partner 1 µM)
How it was run: as §1

Cell Line | relative viability (Motesanib + AZD7762; first compound 0.01 µM) | relative viability (Motesanib + AZD7762; first compound 0.03162 µM) | relative viability (Motesanib + AZD7762; first compound 0.1 µM) | relative viability (Motesanib + AZD7762; first compound 0.3162 µM) | relative viability (Motesanib + AZD7762; first compound 1 µM) | relative viability (Motesanib + Palbociclib; first compound 0.01 µM) | relative viability (Motesanib + Palbociclib; first compound 0.03162 µM) | relative viability (Motesanib + Palbociclib; first compound 0.1 µM) | relative viability (Motesanib + Palbociclib; first compound 0.3162 µM) | relative viability (Motesanib + Palbociclib; first compound 1 µM) | relative viability ([1]; first compound 0.04 µM) | relative viability ([1]; first compound 0.1265 µM) | relative viability ([1]; first compound 0.4 µM) | relative viability ([1]; first compound 1.265 µM) | relative viability ([2]; first compound 0.04 µM) | relative viability ([2]; first compound 0.1265 µM) | relative viability ([2]; first compound 0.4 µM) | relative viability ([2]; first compound 1.265 µM)
NCI-H2342 | 0.46 | 0.515 | 0.571 | 0.476 | 0.459 | 0.508 | 0.52 | 0.539 | 0.527 | 0.554 | 0.685 | 0.636 | 0.559 | 0.671 | – | – | – | –
HCC-15 | 1.34 | 1.18 | 1.06 | 1.36 | 1.33 | 0.777 | 0.668 | 0.695 | 0.768 | 0.702 | 0.48 | 0.375 | 0.43 | 0.311 | 0.749 | 0.63 | 0.66 | 0.714
A-427 | 0.709 | 0.733 | 0.821 | 0.775 | 0.668 | 0.527 | 0.506 | 0.512 | 0.526 | 0.549 | 0.514 | 0.413 | 0.489 | 0.501 | 0.853 | 0.848 | 0.674 | 0.882
NCI-H2228 | – | – | – | – | – | 0.664 | 0.8 | 0.589 | 0.937 | 0.613 | – | – | – | – | 0.395 | 0.342 | 0.262 | 0.255
NCI-H1734 | 0.548 | 0.648 | 0.584 | 0.499 | 0.457 | 0.359 | 0.349 | 0.387 | 0.348 | 0.324 | 0.456 | 0.389 | 0.405 | 0.437 | 0.554 | 0.51 | 0.358 | 0.509
PC-14 | 0.306 | 0.296 | 0.286 | 0.41 | 0.329 | 0.465 | 0.539 | 0.539 | 0.512 | 0.593 | 0.209 | 0.27 | 0.177 | 0.172 | 0.901 | 0.806 | 0.758 | 0.763
NCI-H1915 | 0.676 | 0.66 | 0.747 | 0.711 | 0.755 | 0.541 | 0.522 | 0.545 | 0.508 | 0.575 | 0.266 | 0.278 | 0.251 | 0.258 | 0.932 | 0.874 | 0.898 | 0.952
NCI-H1666 | 0.809 | 0.927 | 1.02 | 0.898 | 0.909 | 0.649 | 0.577 | 0.679 | 0.751 | 0.63 | 0.66 | 0.644 | 0.587 | 0.492 | 0.811 | 0.845 | 0.708 | 0.574
HCC-366 | 0.278 | 0.214 | 0.46 | 0.248 | 0.207 | 0.354 | 0.36 | 0.367 | 0.452 | 0.435 | 0.315 | 0.292 | 0.265 | 0.265 | 0.612 | 0.442 | 0.388 | 0.0918
SK-MES-1 | – | – | – | – | – | 0.322 | 0.319 | 0.316 | 0.331 | 0.351 | 0.333 | 0.424 | 0.333 | 0.344 | 1.09 | 0.84 | 0.861 | 0.879
SW 1573 | – | – | – | – | – | 0.321 | 0.385 | 0.498 | 0.38 | 0.444 | 0.465 | 0.413 | 0.429 | 0.177 | 0.665 | 0.63 | 0.509 | 0.531
NCI-H661 | – | – | – | – | – | 0.43 | 0.414 | 0.43 | 0.435 | 0.402 | 0.528 | 0.514 | 0.54 | 0.547 | 0.983 | – | 1.01 | –
PC-3 [JPC-3] | 0.779 | 0.751 | 0.727 | 0.731 | 0.683 | 0.558 | 0.544 | 0.568 | 0.605 | 0.559 | 0.786 | 0.608 | 0.804 | 0.766 | 1.03 | 0.921 | 0.905 | 1.01
Calu-6 | – | – | – | – | – | – | – | – | – | – | – | – | – | – | 0.881 | 0.743 | 0.597 | 0.491
LC-2-ad | 0.858 | 0.876 | 0.868 | 0.837 | 0.842 | 0.487 | 0.514 | 0.556 | 0.49 | 0.5 | 0.82 | 0.73 | 0.66 | 0.606 | 0.448 | 0.387 | 0.349 | 0.304
CAL-12T | 0.518 | 0.637 | 0.684 | 0.69 | 0.578 | 0.418 | 0.524 | 0.347 | 0.415 | 0.563 | – | – | – | – | 0.509 | 0.487 | 0.346 | 0.161
RERF-LC-KJ | 0.9 | 0.873 | 1.06 | 1.03 | 0.813 | 1.11 | 0.968 | 1.18 | 1.12 | 1.19 | 0.662 | 0.629 | 0.468 | 0.467 | 0.874 | 0.733 | 0.732 | 0.801
NCI-H1650 | – | – | – | – | – | 0.351 | 0.385 | 0.349 | 0.346 | 0.343 | 0.348 | 0.458 | 0.463 | 0.447 | 0.966 | 0.813 | 0.9 | 0.366
BEN | 0.617 | 0.877 | 0.645 | 0.576 | 0.799 | 0.458 | 0.457 | 0.478 | 0.481 | 0.476 | 0.702 | 0.583 | 0.737 | 0.562 | 0.773 | 1.19 | 0.59 | 0.999
EMC-BAC-2 | 1.07 | 1.1 | 1.09 | 1.2 | 1.04 | 0.513 | 0.511 | 0.526 | 0.526 | 0.534 | 0.709 | 0.737 | 0.578 | 0.717 | 0.675 | 0.697 | 0.66 | 0.816
LU99A | 0.39 | 0.361 | 0.382 | 0.399 | 0.355 | 0.412 | 0.489 | 0.435 | 0.334 | 0.417 | 0.764 | 0.585 | 0.527 | 0.738 | 0.391 | 0.415 | 0.39 | 0.233
